Results on 56 compounds are retold here after PubChem BioAssay AID1117354 (Cheminformatics & Chemogenomics Research Group (CCRG), …, 2015).

Active and inactive are the calls of the source. How the calls were made is not given here.

The target in the test is Tyrosine-protein kinase JAK2 (Homo sapiens) (UniProt O60674). Put plainly: NCGC Pharmaceutical Collection primary HTS, Janus kinase 2 (Homo sapiens) inhibitors, biochemical, LANCE Ultra TR-FRET (AID 1117354). The note with it: LANCE Ultra TR-FRET kinase assay, at 20 µM (top of the series). Background: TR-FRET usually uses a lanthanide donor and a delayed reading to cut background.
Chain of Tyrosine-protein kinase JAK2 (Homo sapiens) (O60674 whole entry, looked up): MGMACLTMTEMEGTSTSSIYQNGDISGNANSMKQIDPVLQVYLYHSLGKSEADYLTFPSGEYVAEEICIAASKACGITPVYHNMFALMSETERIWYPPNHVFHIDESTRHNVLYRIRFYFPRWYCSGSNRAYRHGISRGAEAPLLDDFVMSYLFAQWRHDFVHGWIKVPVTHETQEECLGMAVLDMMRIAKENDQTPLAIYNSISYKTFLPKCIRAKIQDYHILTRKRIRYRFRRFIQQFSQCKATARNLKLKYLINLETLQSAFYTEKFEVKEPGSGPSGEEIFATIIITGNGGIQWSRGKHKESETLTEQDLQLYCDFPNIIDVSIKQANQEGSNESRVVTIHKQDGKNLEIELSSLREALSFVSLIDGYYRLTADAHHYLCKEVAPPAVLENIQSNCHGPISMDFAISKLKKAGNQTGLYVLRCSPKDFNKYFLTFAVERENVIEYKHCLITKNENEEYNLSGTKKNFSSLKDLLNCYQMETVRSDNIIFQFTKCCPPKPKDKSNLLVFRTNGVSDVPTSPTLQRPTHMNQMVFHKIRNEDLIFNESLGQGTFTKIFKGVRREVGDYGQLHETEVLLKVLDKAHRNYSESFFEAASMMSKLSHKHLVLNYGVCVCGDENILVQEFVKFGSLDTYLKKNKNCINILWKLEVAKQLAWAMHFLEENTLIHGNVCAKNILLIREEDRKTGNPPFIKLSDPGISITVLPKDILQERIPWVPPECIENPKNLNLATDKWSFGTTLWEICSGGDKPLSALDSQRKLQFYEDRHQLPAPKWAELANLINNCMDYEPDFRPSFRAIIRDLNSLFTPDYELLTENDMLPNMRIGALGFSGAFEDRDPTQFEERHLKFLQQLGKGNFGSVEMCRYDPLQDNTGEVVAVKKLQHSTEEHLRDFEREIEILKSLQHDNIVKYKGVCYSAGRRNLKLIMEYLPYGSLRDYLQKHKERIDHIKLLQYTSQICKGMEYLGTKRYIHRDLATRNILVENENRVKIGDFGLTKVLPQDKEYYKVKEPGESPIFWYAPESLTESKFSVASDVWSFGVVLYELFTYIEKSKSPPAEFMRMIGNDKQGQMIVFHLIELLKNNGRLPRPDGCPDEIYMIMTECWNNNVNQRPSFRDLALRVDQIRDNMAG

Broadly, the inhibition is the change of the read-out against control, counted positive when it falls. With `CC(C)C[C@H](NC(=O)[C@H](Cc1ccccc1)NC(=O)c1cnccn1)B(O)O`, the inhibition is -3.33% (inactive).
Next, `COc1cc([C@@H]2c3cc4c(cc3[C@H](O)[C@H]3COC(=O)[C@H]23)OCO4)cc(OC)c1OC`: 7.37% (inactive); `CCN(CC)CCOc1ccc(/C(=C(\Cl)c2ccccc2)c2ccccc2)cc1`: -4.05% (inactive).
For `Cc1nc(N)nc(N)c1-c1ccc(Cl)c(Cl)c1` the value was -2.13% (inactive); for `COc1ccc2cc1Oc1ccc(cc1)C[C@H]1c3c(cc4c(c3Oc3cc5c(cc3OC)CCN(C)[C@@H]5C2)OCO4)CCN1C`, 17.9% (inactive); for `CSc1ccc2c(c1)C(N1CCN(C)CC1)Cc1ccccc1S2` (stereo unspecified), -4.22% (inactive).
Next, `CCCSc1ccc2nc(NC(=O)OC)[nH]c2c1`: -0.03% (inactive).
In the case of `COC(=O)Nc1nc2ccc(S(=O)c3ccccc3)cc2[nH]1` (stereo unspecified), the inhibition was -7.42% (inactive).
Turning to `CC[C@]1(O)C[C@H]2CN(CCc3c([nH]c4ccccc34)[C@@](C(=O)OC)(c3cc4c(cc3OC)N(C=O)[C@H]3[C@@](O)(C(=O)OC)[C@H](OC(C)=O)[C@]5(CC)C=CCN6CC[C@]43[C@@H]65)C2)C1`, the inhibition is 9% (inactive).
Next, `CCN(CC)CCNc1ccc(CO)c2sc3ccccc3c(=O)c12`: 33.1% (inactive).
On to `Cc1ccccc1C(=O)Nc1ccc(C(=O)N2CCCC(N(C)C)c3ccccc32)cc1` (stereo unspecified), for which the inhibition is 16% (inactive).
For `O=c1[nH]c(=O)n([C@H]2C[C@H](O)[C@@H](CO)O2)cc1F`, the inhibition is -18.6% (inactive).
Next, `CC[C@]1(O)C[C@@H]2CN(CCc3c([nH]c4ccccc34)[C@@](C(=O)OC)(c3cc4c(cc3OC)N(C)[C@H]3[C@@](O)(C(=O)OC)[C@H](OC(C)=O)[C@]5(CC)C=CCN6CC[C@]43[C@@H]65)C2)C1`: 5.49% (inactive).
Next, `Oc1c(I)cc(I)c2cccnc12`: -10.5% (inactive); `NC(=NCCCCCCN=C(N)/N=C(\N)Nc1ccc(Cl)cc1)/N=C(\N)Nc1ccc(Cl)cc1`: 0.31% (inactive).
Next, `CCCN(CCC)C(=O)C(CCC(=O)OCCCN1CCN(CCOC(=O)Cc2c(C)n(C(=O)c3ccc(Cl)cc3)c3ccc(OC)cc23)CC1)NC(=O)c1ccccc1` (stereo unspecified): 12.5% (inactive); `COc1cccc2c1C(=O)c1c(O)c3c(c(O)c1C2=O)C[C@@](O)(C(C)=O)C[C@@H]3O[C@H]1C[C@H](N)[C@H](O)[C@H](C)O1`: 7.94% (inactive); `CC(=O)[C@]1(O)Cc2c(O)c3c(c(O)c2[C@@H](O[C@H]2C[C@H](N)[C@H](O)[C@H](C)O2)C1)C(=O)c1ccccc1C3=O`: 29.1% (inactive).
Regarding `CCN(CC)CCNC(=O)c1c(C)[nH]c(/C=C2\C(=O)Nc3ccc(F)cc32)c1C`, the inhibition is 97.3%.
Next, `O=c1c(-c2ccccc2)c1-c1ccccc1`: -9.18% (inactive); `Nc1nc(=S)c2[nH]cnc2[nH]1`: 10.3% (inactive); `COC(=O)c1nc(Cl)c(Cl)nc1N`: -6.75% (inactive).
Turning to `O=c1[nH]c(=O)n([C@H]2C[C@H](O)[C@@H](CO)O2)cc1C(F)(F)F`, the inhibition was 14.7% (inactive).
For `Cc1cc(C)c(/C=C2\C(=O)Nc3ccccc32)[nH]1` the value was 68.5%; for `CCCCCCNC(=O)n1cc(F)c(=O)[nH]c1=O`, -3.52% (inactive).
For `CCCCC1C(=O)N(c2ccccc2)N(c2ccc(O)cc2)C1=O` (stereo unspecified) the value was -4.57% (inactive).
As for `CN(C)c1ccc2nc3ccc(=[N+](C)C)cc-3sc2c1`, the inhibition is 13.3% (inactive).
As for `CC(=O)Oc1ccc(C2(c3ccc(OC(C)=O)cc3)Oc3ccccc3NC2=O)cc1`, the inhibition is 7% (inactive).
In the case of `CCCOc1ccc2nc(NC(=O)OC)[nH]c2c1`, the inhibition is -4.4% (inactive).
With `COc1cc(-c2ccc(=O)[nH]n2)ccc1OC(F)F`, the inhibition is -10.1% (inactive).
Regarding `Cc1cc2c(C(C)C)c(O)c(O)c(C=O)c2c(O)c1-c1c(C)cc2c(C(C)C)c(O)c(O)c(C=O)c2c1O`, the inhibition is -0.85% (inactive).
Next, `Cc1ccc2nc(N)[nH]c(=O)c2c1Sc1ccncc1`: 16.7% (inactive).
Next, `Nc1ccc2cc3ccc(N)cc3nc2c1`: -6.54% (inactive).
For `C[C@@]12C(=O)OC(=O)[C@]1(C)C1CCC2O1` the value was -0.89% (inactive); for `COC(=O)Nc1nc2ccc(C(=O)c3cccs3)cc2[nH]1`, 12.9% (inactive); for `O=C1c2c(O)ccc(O)c2C(=O)c2c(NCCNCCO)ccc(NCCNCCO)c21`, 43.4% (inactive).
As to `CCCCCCCCCCCCCCCC[n+]1ccccc1`, the inhibition was 53.6%.
On to `CC[C@@H]([C@H](C)O)n1ncn(-c2ccc(N3CCN(c4ccc(OC[C@@H]5CO[C@@](Cn6cncn6)(c6ccc(F)cc6F)C5)cc4)CC3)cc2)c1=O`, for which the inhibition was 10.5% (inactive).
For `COc1c(C)c2c(c(O)c1C/C=C(\C)CCC(=O)OCCN1CCOCC1)C(=O)OC2`, the inhibition was 8.22% (inactive).
Turning to `COc1cc(NCc2ccc3nc(N)nc(N)c3c2C)cc(OC)c1OC`, the inhibition was 26.2% (inactive).
Turning to `CC(C)(C)C1CCC(CC2=C(O)c3ccccc3C(=O)C2=O)CC1` (stereo unspecified), the inhibition was -11.2% (inactive).
For the compound `CC[C@@]1(O)C(=O)OCc2c1cc1n(c2=O)Cc2c-1nc1ccccc1c2/C=N/OC(C)(C)C`, the inhibition is 12.1% (inactive).
For `COc1ccc(-c2ccc3cc(C(=O)O)ccc3c2)cc1C12CC3CC(CC(C3)C1)C2` the value was 97.7%; for `Cn1cnc([N+](=O)[O-])c1Sc1ncnc2nc[nH]c12`, -15.7% (inactive); for `O=C(O)c1ccc(-n2nc(-c3ccccc3O)nc2-c2ccccc2O)cc1`, 44.5% (inactive).
`Cc1cc(O)c2ccccc2c1O`: the inhibition is 19.2% (inactive).
On to `Oc1c(Cl)cc(Cl)c2cccnc12`, for which the inhibition was -13.9% (inactive).
Next, `COCc1c(C(C)C)nc(C(C)C)c(/C=C/[C@@H](O)C[C@@H](O)CC(=O)O)c1-c1ccc(F)cc1`: -8.56% (inactive); `O=C(CCCCCCC(=O)Nc1ccccc1)NO`: -17.1% (inactive).
Next, `Cc1cc(=O)c2c(O)c3c(O)cc(=O)c4c3c3c(cc(O)c1c23)C(C)(C)C=4O`: 32.9% (inactive).
Take `CC(C)C[C@H](NC(=O)[C@H](CCc1ccccc1)NC(=O)CN1CCOCC1)C(=O)N[C@@H](Cc1ccccc1)C(=O)N[C@@H](CC(C)C)C(=O)[C@@]1(C)CO1`: the inhibition was 5.34% (inactive).
Next, `COC(=O)[C@H]1[C@H]2C[C@@H]3c4[nH]c5cc(OC)ccc5c4CCN3C[C@H]2C[C@@H](OC(=O)/C=C/c2ccc(O)c(OC)c2)[C@@H]1OC`: 9.23% (inactive); `C=C(C)[C@H]1Cc2c(ccc3c2O[C@@H]2COc4cc(OC)c(OC)cc4[C@@H]2C3=O)O1`: 4.93% (inactive).
In the case of `CCc1nc(N)nc(N)c1-c1ccc(Cl)cc1`, the inhibition was -6.66% (inactive).
Next, `Cc1ccc([N+](=O)[O-])[c]2c1[O][Hg]2`: 36.9% (inactive); `C[n+]1c2cc(N)ccc2cc2ccc(N)cc21` (tested in a mixture with another compound): 8.06% (inactive).
